Laboratory results: patent US20260152498A1, “4,5,6,7-TETRAHYDRO-1H-PYRAZOLO[4,3-c]PYRIDINE COMPOUNDS AND DERIVATIVES AS USP1 INHIBITORS” (EXELIXIS, INC., priority 2022, published 2026)

Experiments:
USP1-UAF1 complex [1] = target: T1, USP1-UAF1 complex (Homo sapiens, UniProt O94782); conditions: 1.2 µM
Description: (§1) Biochemical Assay: The compounds were evaluated for their potential to inhibit USP1-UAF1 complex (Boston Biochem, Catalog: E568-050) using a fluorescence-based assay. The final concentrations of USP1-UAF1 complex protein and substrate Ubiquitin-Rhodamine-110 (R&D systems, Catalog U-555-050) used in the assay were 0.45 and 150 nM respectively. 50 mM HEPES pH. 7.5, 100 mM NaCl, 0.5 mM EDTA, 1 mM TCEP, 10% BSA, 0.01% Tween 20 buffer was used in the assay. The total assay volume was 20 μL. […] The final DMSO concentration in the assay was 1%. The compounds were pre-incubated with USP1-UAF1 complex at 25° C. for 15 min. After preincubation, required concentration of substrate was added and incubated at 25° C. for 60 min. Fluorescence at Excitation: 485 nm, Emission: 535 nm was measured in Victor-5 from Perkin Elmer.
(§2) To determine IC50 values, dose response curves were generated by plotting percentage inhibition as a function of inhibitor concentration and the data was fitted to sigmoidal non-linear regression equation (variable slope) using Graph Pad prism software V8.
(§3) The compounds were screened by the above-mentioned assay procedure.

USP1-UAF1 complex [2] = target: T1, USP1-UAF1 complex; assay: biochemical
Description: as §1, §2, §3

T1 sequence (O94782 whole entry): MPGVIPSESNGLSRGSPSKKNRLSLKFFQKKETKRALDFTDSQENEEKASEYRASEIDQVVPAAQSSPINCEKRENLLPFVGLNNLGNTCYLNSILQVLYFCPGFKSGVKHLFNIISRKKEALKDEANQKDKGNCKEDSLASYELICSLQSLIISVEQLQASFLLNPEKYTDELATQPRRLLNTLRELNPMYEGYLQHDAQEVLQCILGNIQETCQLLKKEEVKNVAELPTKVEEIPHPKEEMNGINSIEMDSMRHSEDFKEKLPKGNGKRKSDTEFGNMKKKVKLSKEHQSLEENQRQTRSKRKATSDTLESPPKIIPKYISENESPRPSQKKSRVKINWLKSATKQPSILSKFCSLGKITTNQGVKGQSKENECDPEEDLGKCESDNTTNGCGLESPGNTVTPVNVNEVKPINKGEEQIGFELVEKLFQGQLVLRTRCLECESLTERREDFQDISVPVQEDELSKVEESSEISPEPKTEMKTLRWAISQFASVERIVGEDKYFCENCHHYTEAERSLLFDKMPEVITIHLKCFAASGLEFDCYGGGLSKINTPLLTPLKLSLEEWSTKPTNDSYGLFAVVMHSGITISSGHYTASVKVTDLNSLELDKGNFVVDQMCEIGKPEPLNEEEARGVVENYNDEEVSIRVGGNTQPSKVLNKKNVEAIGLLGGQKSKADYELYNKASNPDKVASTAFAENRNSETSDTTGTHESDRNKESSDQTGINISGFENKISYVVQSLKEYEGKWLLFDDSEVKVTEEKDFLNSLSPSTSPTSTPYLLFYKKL
T1 sequence (Q8TAF3 whole entry partner): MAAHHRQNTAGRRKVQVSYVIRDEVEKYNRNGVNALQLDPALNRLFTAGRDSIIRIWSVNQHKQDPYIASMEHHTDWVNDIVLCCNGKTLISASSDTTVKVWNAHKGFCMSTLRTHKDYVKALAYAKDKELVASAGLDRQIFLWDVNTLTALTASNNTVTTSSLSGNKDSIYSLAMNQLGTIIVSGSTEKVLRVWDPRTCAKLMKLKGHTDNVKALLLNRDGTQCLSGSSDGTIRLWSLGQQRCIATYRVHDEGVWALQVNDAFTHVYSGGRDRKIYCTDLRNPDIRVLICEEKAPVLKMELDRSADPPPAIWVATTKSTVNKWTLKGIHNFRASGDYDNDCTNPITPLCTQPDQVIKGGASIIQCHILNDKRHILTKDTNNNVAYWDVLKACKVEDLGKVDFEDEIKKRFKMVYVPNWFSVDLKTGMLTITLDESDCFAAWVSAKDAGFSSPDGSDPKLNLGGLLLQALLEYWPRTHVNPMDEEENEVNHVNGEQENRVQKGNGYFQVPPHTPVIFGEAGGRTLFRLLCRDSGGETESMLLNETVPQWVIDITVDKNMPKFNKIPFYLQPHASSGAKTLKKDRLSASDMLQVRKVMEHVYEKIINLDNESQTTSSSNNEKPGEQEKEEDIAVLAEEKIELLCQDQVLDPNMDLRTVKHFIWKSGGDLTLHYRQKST

| SMILES | inhibition (USP1-UAF1 complex [1]) [%] | IC50 (USP1-UAF1 complex [2]) [nM] |
| --- | --- | --- |
| COc1ncnc(C2CC2)c1-c1nn(C2CC2)c2c1CN(c1ccc(-c3nc(C(F)(F)F)cn3C)cc1)CC2 [Compound 30, 1-cyclopropyl-3-(4-cyclopropyl-6-methoxypyrimidin-5-yl)-5-(4-(1-methyl-4-(trifluoromethyl)-1H-imidazol-2-yl)phenyl)-4,5,6,7-tetrahydro-1H-pyrazolo[4,3-c]pyridine] | 98 | < 50 |
| CCn1cc(C(F)(F)F)nc1-c1ccc(N2CCc3c(c(-c4c(OC)ncnc4C4CC4)nn3C)C2)cc1 [Compound 5, 3-(4-cyclopropyl-6-methoxypyrimidin-5-yl)-5-(4-(1-ethyl-4-(trifluoromethyl)-1H-imidazol-2-yl)phenyl)-1-methyl-4,5,6,7-tetrahydro-1H-pyrazolo[4,3-c]pyridine] | 100 | < 50 |
| COc1ncnc(C2CC2)c1-c1nn(C)c2c1CN(c1ccc(-c3nn(C)c4c3CN(C)CC4)cc1)CC2 [Compound 53, 3-(4-cyclopropyl-6-methoxypyrimidin-5-yl)-5-(4-(1,5-dimethyl-4,5,6,7-tetrahydro-1H-pyrazolo[4,3-c]pyridin-3-yl)phenyl)-1-methyl-4,5,6,7-tetrahydro-1H-pyrazolo[4,3-c]pyridine] | 42 | > 100 |
| CCn1nc(-c2c(OC)ncnc2C2CC2)c2c1CCN(c1ccc(-c3nc(C(F)(F)F)cn3C)cn1)C2 [Compound 26, 3-(4-cyclopropyl-6-methoxypyrimidin-5-yl)-1-ethyl-5-(5-(1-methyl-4-(trifluoromethyl)-1H-imidazol-2-yl)pyridin-2-yl)-4,5,6,7-tetrahydro-1H-pyrazolo[4,3-c]pyridine] | 90 | > 100 |
| COc1ncnc(C2CC2)c1-c1nn(C2CC2)c2c1CN(c1ccc(-c3nc(C(F)(F)F)cn3C)cn1)CC2 [Compound 32, 1-cyclopropyl-3-(4-cyclopropyl-6-methoxypyrimidin-5-yl)-5-(5-(1-methyl-4-(trifluoromethyl)-1H-imidazol-2-yl)pyridin-2-yl)-4,5,6,7-tetrahydro-1H-pyrazolo[4,3-c]pyridine] | 89 | > 100 |
| COc1ncnc(C2CC2)c1-c1nn(C)c2c1CN(c1ccc(-c3nc(C(F)(F)F)cn3C(C)C)cc1)CC2 [Compound 6, 3-(4-cyclopropyl-6-methoxypyrimidin-5-yl)-5-(4-(1-isopropyl-4-(trifluoromethyl)-1H-imidazol-2-yl)phenyl)-1-methyl-4,5,6,7-tetrahydro-1H-pyrazolo[4,3-c]pyridine] | 100 | < 50 |
| CCOc1cc(N2CCc3c(c(-c4c(OC)ncnc4C4CC4)nn3C)C2)ccc1-c1nc(C(F)(F)F)cn1C [Compound 47, 3-(4-cyclopropyl-6-methoxypyrimidin-5-yl)-5-(3-ethoxy-4-(1-methyl-4-(trifluoromethyl)-1H-imidazol-2-yl)phenyl)-1-methyl-4,5,6,7-tetrahydro-1H-pyrazolo[4,3-c]pyridine] | 95 | 50 to 100 |
| COc1ncnc(C2CC2)c1-c1nn(C)c2c1CN(c1ccc(-c3nc(C(F)(F)F)cn3C)nc1)CC2C (stereo not drawn) [Compound 39, 3-(4-cyclopropyl-6-methoxypyrimidin-5-yl)-1,7-dimethyl-5-(6-(1-methyl-4-(trifluoromethyl)-1H-imidazol-2-yl)pyridin-3-yl)-4,5,6,7-tetrahydro-1H-pyrazolo[4,3-c]pyridine] | 98 | 50 to 100 |
| COc1nccc(C2CC2)c1-c1nn(C)c2c1CN(c1ccc(-c3nc(C(F)(F)F)cn3C)cc1)CC2 [Compound 60, 3-(4-cyclopropyl-2-methoxypyridin-3-yl)-1-methyl-5-(4-(1-methyl-4-(trifluoromethyl)-1H-imidazol-2-yl)phenyl)-4,5,6,7-tetrahydro-1H-pyrazolo[4,3-c]pyridine] | 92 | < 50 |
| CCc1cc(N2CCc3c(c(-c4c(OC)ncnc4C4CC4)nn3C)C2)ccc1-c1nc(C(F)(F)F)cn1C [Compound 57, 3-(4-cyclopropyl-6-methoxypyrimidin-5-yl)-5-(3-ethyl-4-(1-methyl-4-(trifluoromethyl)-1H-imidazol-2-yl)phenyl)-1-methyl-4,5,6,7-tetrahydro-1H-pyrazolo[4,3-c]pyridine] | 87 | > 100 |
| COc1ncnc(C2CC2)c1-c1nn(C)c2c1CN(c1cnc(-n3nc(C(F)(F)F)cc3C)nc1)CC2 [Compound 51, 3-(4-cyclopropyl-6-methoxypyrimidin-5-yl)-1-methyl-5-(2-(5-methyl-3-(trifluoromethyl)-1H-pyrazol-1-yl)pyrimidin-5-yl)-4,5,6,7-tetrahydro-1H-pyrazolo[4,3-c]pyridine] | 95 | 50 to 100 |
| COc1ncnc(C2CC2)c1-c1nn(C)c2c1CN(c1ccc(-c3nc(C(F)(F)F)cn3C)c(F)c1)CC2 [Compound 44, 3-(4-cyclopropyl-6-methoxypyrimidin-5-yl)-5-(3-fluoro-4-(1-methyl-4-(trifluoromethyl)-1H-imidazol-2-yl)phenyl)-1-methyl-4,5,6,7-tetrahydro-1H-pyrazolo[4,3-c]pyridine] | 100 | < 50 |
| COc1ncnc(C2CC2)c1-c1nn(Cc2ccccc2)c2c1CN(c1ccc(-c3nc(C(F)(F)F)cn3C)cc1)CC2 [Compound 36, 1-benzyl-3-(4-cyclopropyl-6-methoxypyrimidin-5-yl)-5-(4-(1-methyl-4-(trifluoromethyl)-1H-imidazol-2-yl)phenyl)-4,5,6,7-tetrahydro-1H-pyrazolo[4,3-c]pyridine] | 99 | < 50 |
| COc1ncnc(C2CC2)c1-c1nn(C)c2c1CN(c1ccc(-c3nc(C(F)(F)F)cn3C3CCC3)cc1)CC2 [Compound 8, 5-(4-(1-cyclobutyl-4-(trifluoromethyl)-1H-imidazol-2-yl)phenyl)-3-(4-cyclopropyl-6-methoxypyrimidin-5-yl)-1-methyl-4,5,6,7-tetrahydro-1H-pyrazolo[4,3-c]pyridine] | 100 | < 50 |
| COc1ncnc(C2CC2)c1-c1nn(C)c2c1CN(c1ccc(-c3c(C)noc3C)cn1)CC2 [Compound 23, 4-(6-(3-(4-cyclopropyl-6-methoxypyrimidin-5-yl)-1-methyl-1,4,6,7-tetrahydro-5H-pyrazolo[4,3-c]pyridin-5-yl)pyridin-3-yl)-3,5-dimethylisoxazole] | 3 | > 100 |
| COc1ncnc(C2CC2)c1-c1nn(C)c2c1CN(c1ccc(-c3nc(C(F)(F)F)cn3C)cc1)CC2(C)C [Compound 41, 3-(4-cyclopropyl-6-methoxypyrimidin-5-yl)-1,7,7-trimethyl-5-(4-(1-methyl-4-(trifluoromethyl)-1H-imidazol-2-yl)phenyl)-4,5,6,7-tetrahydro-1H-pyrazolo[4,3-c]pyridine] | 100 | < 50 |
| COc1cc(N2CCc3c(c(-c4c(OC)ncnc4C4CC4)nn3C)C2)ccc1-c1nc(C(F)(F)F)cn1C [Compound 46, 3-(4-cyclopropyl-6-methoxypyrimidin-5-yl)-5-(3-methoxy-4-(1-methyl-4-(trifluoromethyl)-1H-imidazol-2-yl)phenyl)-1-methyl-4,5,6,7-tetrahydro-1H-pyrazolo[4,3-c]pyridine] | 96 | 50 to 100 |
| COc1ncnc(C2CC2)c1-c1nn(C)c2c1CN(c1ccc(-c3nc(C(F)(F)F)cn3C)cn1)CC2C (stereo not drawn) [Compound 40, 3-(4-cyclopropyl-6-methoxypyrimidin-5-yl)-1,7-dimethyl-5-(5-(1-methyl-4-(trifluoromethyl)-1H-imidazol-2-yl)pyridin-2-yl)-4,5,6,7-tetrahydro-1H-pyrazolo[4,3-c]pyridine] | 97 | 50 to 100 |
| COc1ncnc(C2CC2)c1-c1nn(C)c2c1CN(c1ccc(-c3nn(C)c4c3CNCC4)cc1)CC2 [Compound 56, 3-(4-cyclopropyl-6-methoxypyrimidin-5-yl)-1-methyl-5-(4-(1-methyl-4,5,6,7-tetrahydro-1H-pyrazolo[4,3-c]pyridin-3-yl)phenyl)-4,5,6,7-tetrahydro-1H-pyrazolo[4,3-c]pyridine] | 5 | > 100 |
| COc1ncnc(C2CC2)c1-c1nn(C2CCC2)c2c1CN(c1ccc(-c3nc(C(F)(F)F)cn3C)nc1)CC2 [Compound 34, 1-cyclobutyl-3-(4-cyclopropyl-6-methoxypyrimidin-5-yl)-5-(6-(1-methyl-4-(trifluoromethyl)-1H-imidazol-2-yl)pyridin-3-yl)-4,5,6,7-tetrahydro-1H-pyrazolo[4,3-c]pyridine] | 75 | > 100 |
| CC(C)c1ncccc1-c1nn(C)c2c1CN(c1ccc(-c3nc(C(F)(F)F)cn3C)nc1)CC2 [Compound 4, 3-(2-isopropylpyridin-3-yl)-1-methyl-5-(6-(1-methyl-4-(trifluoromethyl)-1H-imidazol-2-yl)pyridin-3-yl)-4,5,6,7-tetrahydro-1H-pyrazolo[4,3-c]pyridine] | 81 | > 100 |
| COc1ncnc(C2CC2)c1-c1nn(C)c2c1CN(c1ccc(-n3nc(C(F)(F)F)cc3C)cc1)CC2 [Compound 17, 3-(4-cyclopropyl-6-methoxypyrimidin-5-yl)-1-methyl-5-(4-(5-methyl-3-(trifluoromethyl)-1H-pyrazol-1-yl)phenyl)-4,5,6,7-tetrahydro-1H-pyrazolo[4,3-c]pyridine] | 100 | < 50 |
| COc1ncnc(C2CC2)c1-c1nn(C2CCC2)c2c1CN(c1ccc(-c3nc(C(F)(F)F)cn3C)cn1)CC2 [Compound 35, 1-cyclobutyl-3-(4-cyclopropyl-6-methoxypyrimidin-5-yl)-5-(5-(1-methyl-4-(trifluoromethyl)-1H-imidazol-2-yl)pyridin-2-yl)-4,5,6,7-tetrahydro-1H-pyrazolo[4,3-c]pyridine] | 76 | > 100 |
| CCn1cc(C(F)(F)F)nc1-c1ccc(N2CCc3c(c(-c4c(OC)ncnc4C4CC4)nn3C)C2)nc1 [Compound 14, 3-(4-cyclopropyl-6-methoxypyrimidin-5-yl)-5-(5-(1-ethyl-4-(trifluoromethyl)-1H-imidazol-2-yl)pyridin-2-yl)-1-methyl-4,5,6,7-tetrahydro-1H-pyrazolo[4,3-c]pyridine] | 99 | 50 to 100 |
